Where two headings read alike, the source gives them in different places.
Columns and labels:
MOLM-13 cells [1] = assay: Co-treatment combination screen, synergy score, ATPlite; type: cell-based, human; details: simultaneous combination treatment, 72 hours
Method: (§1) The combination screen was performed using the co-treatment dosing schedule for SRA141 and the partner compound. Both enhancee (SRA141) and enhancer (partner compound) were added at time zero (0 h). Cells were exposed to SRA141 and the enhancer for the entire 72-hour treatment time. All data points were collected via automated processes and were subject to quality control and analyzed using proprietary software.
(§2) The Growth Inhibition (GI) was utilized as a measure of cell growth. GI percentages are calculated by applying the following test and equation: […]
(§3) This formula is derived from the Growth Inhibition calculation used in the National Cancer Institute's NCI-60 high throughput screen. […] These GI calculations were used in all single agent and combination data analysis for the combination screen.
(§4) To measure combination effects in excess of Loewe additivity, a scalar measure was used to characterize the strength of synergistic interaction termed the Synergy Score. The Synergy Score is calculated as: Synergy Score=log fX log fYΣ max(0,Idata)(Idata−ILoewe)
(§5) The fractional inhibition for each component agent and combination point in the matrix is calculated relative to the median of all vehicle-treated control wells. The Synergy Score equation integrates the experimentally-observed activity volume at each point in the matrix in excess of a model surface numerically derived from the activity of the component agents using the Loewe model for additivity. Additional terms in the Synergy Score equation (above) are used to normalize for various dilution factors used for individual agents and to allow for comparison of synergy scores across an entire experiment. The inclusion of positive inhibition gating or an Idata multiplier removes noise near the zero effect level, and biases results for synergistic interactions at that occur at high activity levels. Combinations with higher maximum Growth Inhibition (GI) effects or those which are synergistic at low concentrations will have higher Synergy Scores. Those combinations with Synergy Scores that statistically supersede baseline self-cross values can be considered synergistic. The magnitude of GI effects may be linked to the growth rate of cells which varies for each cell line examined.
(§6) Loewe Volume Score is used to assess the overall magnitude of the combination interaction in excess of the Loewe additivity model. Loewe Volume is particularly useful when distinguishing synergistic increases in a phenotypic activity (positive Loewe Volume) versus synergistic antagonisms (negative Loewe Volume).

MV411 = assay: Combination of SRA141 with targeted agents, CTG and CTBlue, 72 hours, Bliss CI; details: MV411, 72 hours
COLO-205 cells = assay: Co-treatment combination screen, synergy score, ATPlite; type: cell-based, human; details: simultaneous combination treatment, 72 hours
Method: as §1, §2, §3, §4, §5, §6

MOLM-13 = assay: Combination of SRA141 with targeted agents, CTG and CTBlue, 72 hours, Bliss CI; type: cell-based; details: for combination effect with SRA141: MOLM-13, 72 hours
Method: The anti-apoptotic gene BCL-2 was inhibited in Molm-13 cells by treatment with 0.1 μM ABT-199 as previously described (see Examples 6 and 24). Cells were treated with 0.1 μM ABT-199 and SRA141 for 72 hours at SRA141 concentrations of 0.04 μM to 3.30 μM.

Colo-205 = assay: as above; details: Colo-205, 72 hours
SW620 = assay: as above; details: SW620, 72 hours
[2] = tested on: Colo-205 colorectal adenocarcinoma cells; assay: Sequential treatment: SRA141 pre-treatment then partner agent, ATPlite; type: cell-based, human
[3] = tested on: normal human myeloid progenitors (normal bone marrow); assay: 3D growth in methylcellulose matrix, 14 days; type: cell-based
Method: (§7) The anti-proliferative activity of SRA141 (0.3-5 μM) was also evaluated in additional 3D growth studies conducted in a methylcellulose growth matrix using normal human myeloid (n=3) and AML-blast progenitors incubated for 14 days.

AML-blast progenitors = assay: 3D growth in methylcellulose matrix, 14 days; type: cell-based
Method: as §7

AM7440 = assay: AML PDX ex vivo 3D culture, 5 days; type: cell-based
Method: (§8) The activity of SRA141 was investigated in in vitro and ex vivo three-dimensional (3D) cultures prepared from three AML cell lines (EOL-1, Molm-16 and MV-4-11) and three AML PDX models (AM5512, AM7440 and AM7577), respectively. Tumor cultures were treated with SRA141 (0.08 to 33 μM) for 5 days.

AM5512 = assay: AML PDX ex vivo 3D culture, 5 days; type: cell-based
Method: as §8

EOL-1 = assay: AML 3D culture, 5 days; type: cell-based; details: EOL-1 cell line
Method: as §8

MV-4-11 = assay: AML 3D culture, 5 days; type: cell-based; details: MV-4-11 cell line
Method: as §8

Molm-16 = assay: AML 3D culture, 5 days; type: cell-based; details: Molm-16 cell line
Method: as §8

MOLM-13 cells [4] = assay: Sequential treatment: SRA141 pre-treatment then partner agent, ATPlite; type: cell-based, human; details: 200 nM SRA141 pre-treatment 48 hrs compared to DMSO pre-treatment
Method: Flasks of MOLM-13 cells were pre-treated with SRA141 (1 μM and 200 nM) and DMSO control for 48 hrs; cells were washed and seeded into 384-well plates; plates left to incubate for 6 hrs, followed by treatment with trametinib or bexarotene six hours after plating as single agents. After 72 hrs, ATP levels were measured using ATPlite.

AM7577 = assay: AML PDX ex vivo 3D culture, 5 days; type: cell-based
Method: as §8

## Cn1ncnc1[C@H]1c2n[nH]c(=O)c3cc(F)cc(c23)N[C@@H]1c1ccc(F)cc1 [BMN673]
MOLM-13 cells [1]
  synergy with SRA141: strong synergies

## COc1c(OCCCN2CCOCC2)ccc2c1N=C(NC(=O)c1cnc(N)nc1)N1CCN=C21 [Copanlisib]
MV411
  combination effect with SRA141: slight additive effects
COLO-205 cells
  synergy with SRA141: Strong synergies
MOLM-13
  combination effect with SRA141: slight additive effects
Colo-205
  combination effect with SRA141: slight additive effect
SW620
  combination effect with SRA141: slight additive effects

## C[C@@]1(CO)[C@H](O)CC[C@@]2(C)[C@H]1CC[C@H]1C[C@@H]3C[C@@]12CC[C@]3(O)CO [aphidicolin]
[2]; 1 μM SRA141 pre-treatment 48 hrs compared to DMSO pre-treatment
  EC50 fold change of partner agent: 4.60

## Nc1ccn([C@@H]2O[C@H](CO)[C@@H](O)[C@@H]2O)c(=O)n1 [Cytarabine, cytosine arabinoside, reference compound]
[3]; Normal bone marrow 111, read-out: IC50
  IC50: 4.8 nM
[3]; Normal bone marrow 525 (first line), read-out: IC50
  IC50: 3.7 nM
[3]; Normal bone marrow 525 (second line), read-out: IC50
  IC50: 3.8 nM
[3]; mean of 3 samples, read-out: Mean normal bone marrow IC50
  IC50: 4.1 ± 0.6 nM
[3]; read-out: mean IC50, normal bone marrow preparations
  IC50: ~4 nM
AML-blast progenitors; 9 primary AML samples
  primary AML samples responding with a Therapeutic Index [(Primary AML IC50)÷(BMNC control IC50)]: 2 out of 9
AML-blast progenitors; AML810 censored, read-out: mean IC50, AML samples
  IC50: ~4 nM
AML-blast progenitors; AML-blast progenitor 180, read-out: IC50
  IC50: 3.6 nM
AML-blast progenitors; AML-blast progenitor 190, read-out: IC50
  IC50: 6.1 nM
AML-blast progenitors; AML-blast progenitor 200, read-out: IC50
  IC50: 2.8 nM
AML-blast progenitors; AML-blast progenitor 250, read-out: IC50
  IC50: 2.2 nM
AML-blast progenitors; AML-blast progenitor 260, read-out: IC50
  IC50: 3 nM
AML-blast progenitors; AML-blast progenitor 717, read-out: IC50
  IC50: 3.8 nM
AML-blast progenitors; AML-blast progenitor 810 (sample censored), read-out: IC50
  IC50: 9.6 nM
AML-blast progenitors; AML-blast progenitor 915, read-out: IC50
  IC50: 8.1 nM
AML-blast progenitors; AML-blast progenitor 917, read-out: IC50
  IC50: 5.7 nM
AML-blast progenitors; with AML 810, read-out: Mean AML-blast progenitor IC50 (with AML 810)
  IC50: 5 ± 2.6 nM
AML-blast progenitors; without AML 810, read-out: Mean AML-blast progenitor IC50 (without AML 810)
  IC50: 4.4 ± 2 nM
AM7440
  IC50: 270 nM
AM5512
  IC50: 8890 nM
EOL-1; Homo sapiens, EOL1
  IC50: 2 nM
MV-4-11; Homo sapiens, MV4-11
  IC50: 50 nM
Molm-16; MOLM16
  IC50: 70 nM

## C=C(c1ccc(C(=O)O)cc1)c1cc2c(cc1C)C(C)(C)CCC2(C)C [Bexarotene]
MOLM-13 cells [1]
  synergy with SRA141: strong synergies
MOLM-13
  combination effect with SRA141: slight additive effects
MOLM-13 cells [4]
  EC50 fold change of partner agent: 2.63
Colo-205
  combination effect with SRA141: antagonistic effect

## CO[C@H]1C[C@@H]2CC[C@@H](C)[C@@](O)(O2)C(=O)C(=O)N2CCCC[C@H]2C(=O)O[C@H]([C@H](C)C[C@@H]2CC[C@@H](OCCO)[C@H](OC)C2)CC(=O)[C@H](C)/C=C(\C)[C@@H](O)[C@@H](OC)C(=O)[C@H](C)C[C@H](C)/C=C/C=C/C=C/1C [everolimus]
[2]; 200 nM SRA141 pre-treatment 48 hrs compared to DMSO pre-treatment
  EC50 fold change of partner agent: 3.3
MOLM-13 cells [4]
  EC50 fold change of partner agent: 3.25

## N.N.[Cl][Pt][Cl] [Cisplatin]
AM7440
  IC50: 1340 nM
AM5512
  IC50: 11900 nM
AM7577
  IC50: 4180 nM
EOL-1
  IC50: 640 nM
MV-4-11
  IC50: 620 nM
Molm-16
  IC50: 380 nM

## CC1(C)CCC(CN2CCN(c3ccc(C(=O)NS(=O)(=O)c4ccc(NCC5CCOCC5)c([N+](=O)[O-])c4)c(Oc4cnc5[nH]ccc5c4)c3)CC2)=C(c2ccc(Cl)cc2)C1 [ABT-199]
MOLM-13 cells [1]
  synergy with SRA141: strong synergies
MOLM-13; 0.1 μM ABT-199 with SRA141 at 0.12, 0.37, 1.10 and 3.30 μM, 72 hours
  Combination Index: less than 1
MOLM-13
  combination effect with SRA141: act synergistically

## CC1=C(/C=C/C(C)=C/C=C/C(C)=C/C(=O)O)C(C)(C)CCC1 [Tretinoin]
MV411
  combination effect with SRA141: slight additive effects
MOLM-13
  combination effect with SRA141: slight additive effects

## CC(=O)Nc1cccc(-n2c(=O)n(C3CC3)c(=O)c3c(Nc4ccc(I)cc4F)n(C)c(=O)c(C)c32)c1 [Trametinib]
MOLM-13 cells [4]
  EC50 fold change of partner agent: 2.63

From US12533353B2, “Methods of treatment of cancer comprising CDC7 inhibitors” (CARNA BIOSCIENCES, INC., priority 2018, dated 2026)
